Test results: paper PMC13672995, “NCR13 peptide protects soybean against Cercospora sojina using multi-faceted modes of action and additive interaction with chemical fungicides” (Journal of Experimental Botany, 2025)
Where no end group is shown, it is not given here.

What was measured:
[1] = system: C. sojina Cs320 and Cs350 on soybean cv. Blackhawk (FLS); experiment: Pre- and post-inoculation in planta antifungal assays with fungal DNA qPCR; assay type: in vivo, Cercospora sojina
Procedure: For both pre- and post-inoculation in planta antifungal activity assays, 2- to 3-week-old soybean plants cv. Blackhawk (FLS susceptible) grown under a16 h light and 8 h dark cycle were used. For pre-inoculation in planta antifungal activity assay, the second or third trifoliate leaves of soybean plants were first sprayed with 1 ml of NCR13_PFV1 peptide (48 µM) on the abaxial leaf surface followed by spray inoculation with 1 ml of conidial suspension (1×10^5 ml^−1) of azoxystrobin-sensitive Cs320 or -resistant Cs350 isolate. For the post-inoculation in planta antifungal activity assay, the second or third trifoliate leaves of soybean were first spray-inoculated with 1 ml of conidial suspension (1×10^5 ml^−1) followed by spray application of 1 ml of NCR13_PFV1 peptide (48 µM) 2 h later. The mock-treated plants were sprayed with water but no peptide. For both pre- and post-inoculation in planta assays, each treatment consisted of at least four plants and the experiments were performed at least twice. The inoculated plants were kept in a growth chamber under a 16 h light and 8 h dark cycle and 90% relative humidity. The FLS symptoms started to appear 7–10 d post-inoculation and disease scoring was done at 14 d. Diseased leaves were excised from the plant, and both white light and CropReporter (Fv/Fm) images were taken to assess the photosynthetic efficiency of the plant. The leaves were also scored based on a 0–5 scale where: 0=healthy leaves with no leaf spots, 1=1–25% leaf area covered with spots, 2=26–50% leaf area covered with spots, 3=slightly yellow leaves with 51–75% leaf area covered with spots, 4=moderately yellow leaves with 76–95% leaf area covered with spots, and 5=whole leaf is yellow or >96% leaf area covered with spots.
Furthermore, DNA was extracted from the excised leaves to quantify the fungal DNA content using quantitative PCR (PCR). […] DNA quantification in terms of fold change was calculated using the ΔΔCt method ([Livak and Schmittgen, 2001]). […]

B. cinerea = conditions: ref Godwin et al., 2024; cited from earlier work
Text: The cysteine-rich defensins are the best characterized class of plant AFPs for their antifungal activity and multi-faceted MoAs. Many fungal pathogens internalize defensins and defensin-derived peptides in vitro, making them promising candidates for development as bio-fungicides to protect crops. For example, a well-characterized plant defensin MtDef4 and the 17 amino acid γ-core peptide GMA4CG_V6 peptide derived from this defensin are internalized by the necrotrophic pathogen Botrytis cinerea in vitro and robustly reduce gray mold symptoms when sprayed on tomato plants ([Tetorya et al., 2023] ...

[2] = system: fungicide-sensitive and -resistant isolates of C. sojina; experiment: In vitro antifungal activity assay (MIC stated across isolates); assay type: cell-based, Cercospora sojina; conditions: range over Cs320 and Cs350; 48 h
Procedure: In vitro antifungal activity of AFPs and QoI fungicides was determined using 96-well plate assays as described ([Velivelli et al., 2020]) with slight modifications. Briefly, 2- to 3-week-old C. sojina was used to make a conidial suspension in 2× SFM at the final concentration of ∼10^5 conidia ml^−1. Simultaneously, peptide dilutions (in water) at various concentrations were made. Fungicides were dissolved in 50% acetone and 50% water to make a stock solution of 500 µM, and serial dilutions were made in water as needed. The peptide–conidia or the fungicide–conidia mixture at the ratio of 1:1 (45 µl:45 µl) was added in a 96-well plate and incubated at room temperature for 48 h, after which MICs of the peptides/fungicides were calculated based on microscopy as well as the resazurin cell viability assay ([Velivelli et al., 2020]).

[3] = system: protein translation in C. sojina Cs350 germlings; experiment: In vivo protein translation inhibition assay (puromycin labeling); assay type: cell-based, Cercospora sojina; conditions: germlings treated 2 h at 6 µM and 12 µM, puromycin 1 mM 3 h; n=3
Procedure: To assess the translation inhibition of NCR13_PFV1 in C. sojina Cs350, we adapted a recently established puromycin labeling protocol in B. cinerea with minor modifications ([Godwin and Shah, 2025]). Cercospora sojina spores at a concentration of ∼10^5 ml^–1 were inoculated in SFM and cultured for 18 h. The germlings were then treated with NCR13_PFV1 (6 µM and 12 µM) or cycloheximide (50 µg ml^–1) (positive control) for 2 h, followed by the addition of puromycin (1 mM) and incubation for 3 h at 28 °C. After incubation, the germlings were washed three times with sterile water. Total proteins were extracted from germlings using lysis buffer (100 mM HEPES, 5 mM EDTA, 0.1% Triton-X 100, and yeast/fungal protease inhibitor cocktail) and the concentration was estimated using the Pierce BCA Protein Assay Kit (Thermo Scientific). Equal amounts (10 µg) of fungal protein were separated on a 4–20% mini-PROTEAN TGX stain-free protein gel (Bio-Rad, Cat No: 4568094). Western blot analysis was performed using an anti-puromycin antibody (Cell Signaling Technology, Cat No: 40939S), and signal intensities were quantified using Fiji ([Schindelin et al., 2012]).

[4] = Heme-peptide binding assay (colour change); conditions: equimolar heme and peptide, 100 µM, 1 h, room temperature
Procedure: Heme solutions were freshly prepared by dissolving hemin chloride (Sigma Cat No: 3741) in 0.1 M NaOH and used within an hour after preparation. Two heme-sequestering peptides, NCR247 and NCR455 ([Montiel et al., 2017]; [Sankari et al., 2022]), were used as positive controls, and water-only treatment as a negative control. The equimolar concentration of heme and peptide (100 µM) or water were mixed and incubated at room temperature for 1 h. When dissolved in NaOH, heme is light to dark brown in color; however, when it binds to a peptide, the color changes to reddish-brown as described by [Sankari et al. (2022)]. The change in color of heme to reddish-brown indicated the heme binding ability of the peptide.

Which “fungal biomass in infected leaves (fungal DNA, qPCR)” value ([1]; 48 µM spray, Cs320 and Cs350, P-value ≤0.05) does the source give for “TKPCQSDKDCKKFACRKPKVPKCINGFCKCVR (disulfide (positions not given here)) [NCR13_PFV1, chickpea nodule-specific cysteine-rich 32 amino acid peptide, disulfide cross-linking variant 1, expressed in Pichia pastoris]” here?
Its value is “significantly reduced biomass”.

What about the “FLS symptoms (disease severity, 0–5 scale)” value ([1]; 48 µM spray, pre- or post-inoculation (2 h), Cs320 or Cs350, scored at 14 d, Wilcoxon, P-value ≤0.05, n=8, r=2) of the same sequence?
The value was “significantly reduced”.

And the “concentration giving the best control of FLS symptoms” value ([1]; preliminary experiments, 12 µM to 48 µM tested)?
The value was 48 µM.

And the “fold more potent antifungal activity than NCR13_PFV2 against B. cinerea” value (B. cinerea)?
Its value is 2 fold.

What about the “MIC against fungicide-sensitive and -resistant isolates of C. sojina” value [2] of the same sequence?
Its value is 0.75 to 1.5 µM.

What about the “concentration from which protein translation inhibition was observed” value [3] of the same sequence?
Its value is 6 µM.

And the “heme binding (colour change of heme from brown to reddish-brown)” value [4]?
The value was “no such color change”.
